Measured values published in US10167262B2, “Herbicidal substituted 3-arylpyrazoles” (FMC CORPORATION, priority 2014, dated 2019).

Experiments:
Format in all cases: in vivo
[1] = test system: winter wheat (Triticum aestivum); assay: Test C pre-/postemergence greenhouse test, plant response rating 0-100; conditions: Postemergence
In short: (§1)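 After treatment, pots stay in the greenhouse 13–15 days before each species is compared with untreated controls and given a 0–100 visual score. Preemergence seeds are in loam blended with sand; postemergence plants, 1–4 leaves, are in peat-based medium.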

[2] = test system: morningglory (Ipomoea coccinea); assay: as above; conditions: Postemergence
In short: as §1

[3] = test system: giant foxtail (Setaria faberii); assay: as above; conditions: Postemergence
In short: as §1

[4] = test system: johnsongrass (Sorghum halepense); assay: as above; conditions: Postemergence
In short: as §1

[5] = test system: velvetleaf (Abutilon theophrasti); assay: as above; conditions: Postemergence
In short: as §1

[6] = test system: corn (Zea mays); assay: as above; conditions: Postemergence
In short: as §1

[7] = test system: pigweed (Amaranthus retroflexus); assay: as above; conditions: Postemergence
In short: as §1

[8] = test system: lambsquarters (Chenopodium album); assay: as above; conditions: Postemergence
In short: as §1

[9] = test system: blackgrass (Alopecurus myosuroides); assay: as above; conditions: Postemergence; for Plant response rating, Blackgrass: scale 0 to 100
In short: as §1

[10] = test system: soybean (Glycine max); assay: as above; conditions: Postemergence
In short: as §1

[11] = test system: kochia (Kochia scoparia); assay: Test C postemergence greenhouse test, plant response rating 0-100
Description: (§2) At the same time, plants selected from these crop and weed species and also winter barley (Hordeum vulgare), bermudagrass (Cynodon dactylon), downy bromegrass (Bromus tectorum), canarygrass (Phalaris minor), cocklebur (common cocklebur, Xanthium strumarium), woolly cupgrass (Eriochloa villosa), deadnettle (henbit deadnettle, Lamium amplexicaule), green foxtail (Setaria viridis), goosegrass (Eleusine indica), surinam grass (Brachiaria decumbens), windgrass (Apera spica-venti), chickweed (common chickweed, Stellaria media), kochia (Kochia scoparia), and wild oat (Avena fatua), were planted in pots containing Redi-Earth® planting medium (Scotts Company, 14111 Scottslawn Road, Marysville, Ohio 43041) comprising spaghnum peat moss, vermiculite, wetting agent and starter nutrients and treated with postemergence applications of test chemicals formulated in the same manner. Plants ranged in height from 2 to 18 cm (1- to 4-leaf stage) for postemergence treatments. Treated plants and controls were maintained in a greenhouse for 13 to 15 days, after which time all species were compared to controls and visually evaluated. Plant response ratings, summarized in Table C, are based on a scale of 0 to 100 where 0 is no effect and 100 is complete control. A dash (-) response means no test result.

[12] = test system: wild oat (Avena fatua); assay: as above
Description: as §2

[13] = test system: chickweed (common chickweed, Stellaria media); assay: as above
Description: as §2

For `O=C(c1ccccc1)c1cn(S(=O)(=O)CCl)nc1-c1cc(Cl)cc(Cl)c1` [Compound 1], the “Plant response rating (0 to 100), Wheat” value ([1]; 62 g ai/ha) was 0, the “Plant response rating (0 to 100), Wheat” value ([1]; 125 g ai/ha) was 0 and the “Plant response rating, Wheat” value ([1]; 250 g ai/ha, scale 0 to 100) was 0. The “Plant response rating (0 to 100), Morningglory” value ([2]; 62 g ai/ha) was 0, the “Plant response rating (0 to 100), Morningglory” value ([2]; 125 g ai/ha) was 0 and the “Plant response rating, Morningglory” value ([2]; 250 g ai/ha, scale 0 to 100) was 0. For the same molecule, the “Plant response rating (0 to 100), Foxtail, Giant” value ([3]; 31 g ai/ha) was 0, the “Plant response rating (0 to 100), Foxtail, Giant” value ([3]; 62 g ai/ha) was 0 and the “Plant response rating (0 to 100), Foxtail, Giant” value ([3]; 125 g ai/ha) was 0. The “Plant response rating, Foxtail, Giant” value ([3]; 250 g ai/ha, scale 0 to 100) was 0, the “Plant response rating (0 to 100), Johnsongrass” value ([4]; 62 g ai/ha) was 0 and the “Plant response rating (0 to 100), Johnsongrass” value ([4]; 125 g ai/ha) was 0. For the same molecule, the “Plant response rating, Johnsongrass” value ([4]; 250 g ai/ha, scale 0 to 100) was 0, the “Plant response rating (0 to 100), Velvetleaf” value ([5]; 62 g ai/ha) was 70 and the “Plant response rating (0 to 100), Velvetleaf” value ([5]; 125 g ai/ha) was 75. The “Plant response rating, Velvetleaf” value ([5]; 250 g ai/ha, scale 0 to 100) was 80, the “Plant response rating (0 to 100), Corn” value ([6]; 31 g ai/ha) was 0 and the “Plant response rating (0 to 100), Corn” value ([6]; 62 g ai/ha) was 0. The “Plant response rating (0 to 100), Corn” value ([6]; 125 g ai/ha) was 0, the “Plant response rating, Corn” value ([6]; 250 g ai/ha, scale 0 to 100) was 0 and the “Plant response rating (0 to 100), Pigweed” value ([7]; 62 g ai/ha) was 98. The “Plant response rating (0 to 100), Pigweed” value ([7]; 125 g ai/ha) was 100, the “Plant response rating, Pigweed” value ([7]; 250 g ai/ha, scale 0 to 100) was 100 and the “Plant response rating (0 to 100), Lambsquarters” value ([8]; 62 g ai/ha) was 70. The “Plant response rating (0 to 100), Lambsquarters” value ([8]; 125 g ai/ha) was 85, the “Plant response rating, Lambsquarters” value ([8]; 250 g ai/ha, scale 0 to 100) was 85 and the “Plant response rating (0 to 100), Blackgrass” value ([9]; 31 g ai/ha) was 0. For the same molecule, the “Plant response rating (0 to 100), Blackgrass” value ([9]; 62 g ai/ha) was 0, the “Plant response rating, Blackgrass” value ([9]; 125 g ai/ha) was 0 and the “Plant response rating, Blackgrass” value ([9]; 250 g ai/ha) was 0. For the same molecule, the “Plant response rating (0 to 100), Soybean” value ([10]; 62 g ai/ha) was 0, the “Plant response rating (0 to 100), Soybean” value ([10]; 125 g ai/ha) was 0 and the “Plant response rating, Soybean” value ([10]; 250 g ai/ha, scale 0 to 100) was 0. For the same molecule, the “Plant response rating (0 to 100), Kochia” value ([11]; 62 g ai/ha) was 80, the “Plant response rating (0 to 100), Kochia” value ([11]; 125 g ai/ha) was 85 and the “Plant response rating, Kochia” value ([11]; 250 g ai/ha, scale 0 to 100) was 90. For the same molecule, the “Plant response rating (0 to 100), Oat, Wild” value ([12]; 62 g ai/ha) was 0, the “Plant response rating (0 to 100), Oat, Wild” value ([12]; 125 g ai/ha) was 0 and the “Plant response rating, Oat, Wild” value ([12]; 250 g ai/ha, scale 0 to 100) was 0. The “Plant response rating (0 to 100), Chickweed” value ([13]; 31 g ai/ha) was 90, the “Plant response rating (0 to 100), Chickweed” value ([13]; 62 g ai/ha) was 100 and the “Plant response rating (0 to 100), Chickweed” value ([13]; 125 g ai/ha) was 100. For the same molecule, the “Plant response rating, Chickweed” value ([13]; 250 g ai/ha, scale 0 to 100) was 100.
